The values that follow come from the RepoRT retention time repository (doi:10.1021/acs.analchem.2c02893).

This series in a line: RP, Thermo Scientific Acclaim RSLC 120 C18, 100 × 2.1 mm, 2.2 µm, 30 °C, 0.2 mL/min, estimated dead time 1.1 min; A: 90% water + 10% methanol + 0.01% formic acid + 5 mM ammonium formate, pH 3.61; B: methanol + 0.01% formic acid + 5 mM ammonium formate, pH 3.61; gradient (min/%B) 0/1 1/1 2/39 13/99.9 15/99.9 15.1/1 20.1/1. The following applies: stereoisomer not certain.
Consider `CC(C)c1cc(Oc2ccccc2)cc(C(C)C)c1NC(=S)NC(C)(C)C` [Diafenthiuron], for which the LC retention time was 12.9 min.
As to `CCc1cccc(C)c1N1C(=O)COCC1C` (stereo unspecified) [Metolachlor-morpholinon], the LC retention time is 7.89 min.
`Cc1c(Cl)cccc1Nc1ccccc1C(=O)O` [Tolfenamic acid]: the LC retention time was 11.9 min.
For `CN1CCN(CCCN2c3ccccc3Sc3ccc(S(=O)(=O)N(C)C)cc32)CC1` [Thioproperazine], the LC retention time was 8.15 min.
`CN(C)CCC=C1c2ccccc2COc2ccccc21` [Doxepin]: the LC retention time was 7.01 min.
Then `N#Cc1ccc(CC(=NNC(=O)Nc2ccc(OC(F)(F)F)cc2)c2cccc(C(F)(F)F)c2)cc1` [Metaflumizone], with 12.1 min.
As to `CNC(=O)Oc1cccc2ccccc12` [Carbaryl], the LC retention time was 7.46 min.
Regarding `C=CCN1CCCC1CNC(=O)c1cc2n[nH]nc2cc1OC` (stereo unspecified) [Alizapride], the LC retention time is 3.62 min.
On to `CC(C)(C)C(=O)C(Oc1ccc(Cl)cc1)n1cncn1` (stereo unspecified) [Triadimefon], for which the LC retention time is 9.68 min.
In the case of `CN(C)c1nc(N(C)C)nc(N(C)C)n1` [Altretamine], the LC retention time was 10.1 min.
As to `CCCCCn1c(O)c(C(=O)c2cccc3ccccc23)c2ccccc21` [JWH-018-M-2-OH-Ind], the LC retention time was 14 min.
On to `COC(=O)Nc1nc2ccccc2[nH]1` [Carbendazim], for which the LC retention time is 5.46 min.
Consider `NNC(=O)c1ccncc1` [Isoniazide], for which the LC retention time is 2.18 min.
Then `O=C(c1cccc2ccccc12)c1cn(CCCCCF)c2ccccc12` [AM-2201], with 11.2 min; and `COc1cccc(C(=O)CCNC(C)C(O)c2ccccc2)c1` (stereo unspecified) [Oxyfedrine], with 6.14 min.
Then `CCSc1ccc2c(c1)N(CCCN1CCN(C)CC1)c1ccccc1S2` [Thiethylperazine], with 10.4 min; and `CCOCN(C(=O)CCl)c1c(C)cccc1CC` [Acetochlor], with 10.2 min.
Consider `NS(=O)(=O)c1ccc(N2CCCCS2(=O)=O)cc1` [Sulthiame], for which the LC retention time was 4.11 min.
For the molecule `CNC(=O)Oc1cc(C)c(C)c(C)c1.CNC(=O)Oc1cc(C)cc(C)c1C` [Trimethacarb (2.3.5-)], the LC retention time is 8.4 min.
Then `CN1CCN2c3ccccc3Cc3ccccc3C2C1` (stereo unspecified) [Mianserine], with 6.94 min; and `COc1ccccc1Oc1c(NS(=O)(=O)c2ccc(C(C)(C)C)cc2)nc(-c2ncccn2)nc1OCCO` [Bosentan], with 9.96 min.
As for `COC=C(C(=O)O)c1ccccc1Oc1cc(Oc2ccccc2C#N)ncn1` [Azoxystrobin acid], the LC retention time is 8.18 min.
Regarding `Cc1cc(C)nc(Nc2ccccc2)n1` [Pyrimethanil], the LC retention time is 9.44 min.
Take `CC(=O)c1ccc2c(c1)N(CC(C)N(C)C)c1ccccc1S2` (stereo unspecified) [Aceprometazine]: the LC retention time is 7.26 min.
On to `CC(COc1ccc(C(C)(C)C)cc1)OS(=O)OCCCl` (stereo unspecified) [Aramite (total)], for which the LC retention time is 12.2 min.
Then `CNCC(c1ccc(O)cc1)C1(O)CCCCC1` [Venlafaxine-D L-N O-Didesmethyl], with 4.91 min; and `COC(=O)C(C)N(C(=O)Cc1ccccc1)c1c(C)cccc1C` (stereo unspecified) [Benalaxyl], with 10.9 min; and `CN(C)CCc1ccc(O)cc1` [Hordenine], with 2.28 min.
With `CC(C)N1C(=O)N(c2ccccc2)CSC1=NC(C)(C)C` [Buprofezin  (Z-isomer. Buprofexin)], the LC retention time was 12.2 min.
In the case of `CC(C)(C)NC(=O)C1CCC2C3CCC4NC(=O)C=CC4(C)C3CCC12C` (stereo unspecified) [Finasteride], the LC retention time is 9.9 min.
Take `O=C1CC2(CCCC2)CC(=O)N1CCCCN1CCN(c2ncccn2)CC1` [Buspirone]: the LC retention time was 5.78 min.
